Reference: patent publication US20220089609A1, “SUBSTITUTED QUINAZOLINONE DERIVATIVES AND THEIR USE AS POSITIVE ALLOSTERIC MODULATORS OF MGLUR4” (DOMAIN THERAPEUTICS, priority 2018, published 2022)
Counter-ions that a name gives are not always drawn.

Experiments:
[1] = test system: haloperidol-induced catalepsy; test: Haloperidol-induced catalepsy model in the mouse (bar test); type: in vivo; details: 1 mg/kg per os 60 minutes after haloperidol (1 mg/kg i.p.), measured between 135 and 270 min after haloperidol injection
Description: This method, which detects anti-cataleptic activity, follows those well-known by one skilled in the art and described in the literature (e.g. Pires et al., Braz J Med and Biol Res 38, 1867-1872, 2005; Shiozaki et al., Psychopharmacology 147, 90-95, 1999). Catalepsy is a symptom of Parkinson's disease, and is characterized by muscular rigidity and fixity of posture.
The procedure applied to the compounds of the invention is as follows:
Catalepsy is assessed using the bar test in mice submitted to acute administration of haloperidol (1 mg/kg, intra-peritoneal or i.p.). Mice (male RjOrl:SWISS mice, weighing 30-35 g at the beginning of the experiment) were placed (6 to 9 in each group) in Plexiglas cages, and injected with haloperidol (1 mg/kg i.p.). The catalepsy response of one mouse was measured when the animal maintained an imposed posture with both forelimbs placed on a horizontal 0.9 cm diameter wire bar suspended 4 cm above a platform. The end point of catalepsy was considered to occur when both forelimbs were removed from the bar, the mouse climbed onto the bar or if the animal moved its head in an exploratory manner. A cut-off time of 180 seconds was applied. The degree of catalepsy was scored 45 minutes after haloperidol administration and continued at 45 minutes intervals for a total of 270 minutes. Between determinations, the animals were returned to their home cages.
Compounds 81, 100, 114, 119, 143 and 144 were evaluated at 1 mg/kg, administered per os, 60 minutes after haloperidol, and compared with a vehicle control group.
The anti-cataleptic effect of the compound was compared to vehicle-treated group using ANOVA test followed by the Dunnett's test.

human mGluR4 (hmGluR4) = target: T1, human mGluR4 (hmGluR4) (Homo sapiens, UniProt Q14833); test: Calcium assay EC50 determination, positive allosteric modulator activity on hmGluR4 transiently over-expressed in HEK-293 cells; type: cell-based; details: PAM mode with EC20 glutamate; hmGluR4 in HEK-293 cells; intracellular calcium (Fluo4AM); read-out: mGluR4 positive allosteric modulator activity, half maximal effective concentration (EC50)
T1 construct: expressed in transfected cells; host or cells: HEK-293 cells, transient co-transfection by electroporation
Procedure, shortened: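 HEK-293 cells transiently co-transfected with hmGluR4, chimeric G protein and glutamate transporters; Fluo4AM calcium read (ex 485/em 525 nm) on FLIPR Tetra. Compound alone 10 min for agonism, then EC20 glutamate with 3 min recording for PAM activity, versus buffer or EC20 glutamate basal.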

T1 sequence (Q14833 33-912): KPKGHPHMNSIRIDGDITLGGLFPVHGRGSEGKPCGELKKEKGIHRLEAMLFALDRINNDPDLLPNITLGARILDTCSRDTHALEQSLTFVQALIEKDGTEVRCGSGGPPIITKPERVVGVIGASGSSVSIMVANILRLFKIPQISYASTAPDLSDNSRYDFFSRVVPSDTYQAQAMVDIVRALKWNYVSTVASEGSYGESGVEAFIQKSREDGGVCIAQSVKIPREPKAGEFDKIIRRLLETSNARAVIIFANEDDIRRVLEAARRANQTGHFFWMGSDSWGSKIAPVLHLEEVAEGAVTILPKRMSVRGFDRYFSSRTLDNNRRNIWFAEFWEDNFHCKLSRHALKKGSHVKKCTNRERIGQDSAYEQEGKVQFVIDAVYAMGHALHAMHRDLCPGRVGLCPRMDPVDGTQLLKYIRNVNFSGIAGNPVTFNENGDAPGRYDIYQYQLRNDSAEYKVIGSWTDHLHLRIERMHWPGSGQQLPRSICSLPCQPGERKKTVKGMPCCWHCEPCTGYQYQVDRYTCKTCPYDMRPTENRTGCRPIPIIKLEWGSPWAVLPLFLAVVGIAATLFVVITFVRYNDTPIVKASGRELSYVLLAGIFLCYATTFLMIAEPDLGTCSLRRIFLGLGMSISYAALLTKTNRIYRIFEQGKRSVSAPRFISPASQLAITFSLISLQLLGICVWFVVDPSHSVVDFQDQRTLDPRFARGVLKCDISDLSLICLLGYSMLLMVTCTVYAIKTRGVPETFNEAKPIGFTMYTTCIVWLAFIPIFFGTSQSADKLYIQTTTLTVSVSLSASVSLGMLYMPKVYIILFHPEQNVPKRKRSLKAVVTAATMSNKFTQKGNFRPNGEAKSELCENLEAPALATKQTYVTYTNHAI

| SMILES | anti-cataleptic effect (mean time of latency spent on the bar) compared to vehicle-treated group [1] | melting point [°C] | EC50 (human mGluR4 (hmGluR4)) [nM] |
| --- | --- | --- | --- |
| Cc1cc(OC2CCC(=O)N(C)C2)cc2c(=O)[nH]c(-c3cc4ccsc4cn3)nc12 (centres unmarked) [Compound 81, 8-Methyl-6-(1-methyl-6-oxo-piperidin-3-yloxy)-2-thieno[2,3-c]pyridin-5-yl-3H-quinazolin-4-one] | significant anti-cataleptic effect | 221 to 225 | ≤ 100 |
| Cc1cc(CCN2CCOCC2)cc2c(=O)[nH]c(-c3cc4ccsc4cn3)nc12 [Compound 100, 8-methyl-6-(2-morpholin-4-yl-ethyl)-2-thieno[2,3-c]pyridin-5-yl-3H-quinazolin-4-one hydrochloride] | significant anti-cataleptic effect |  | ≤ 100 |
| Cc1cc(CN2CCOCC2)cc2c(=O)[nH]c(-c3cc4ccsc4cn3)nc12 [Compound 114, 8-methyl-6-(morpholinomethyl)-2-thieno[2,3-c]pyridin-5-yl-3H-quinazolin-4-one hydrochloride] | significant anti-cataleptic effect |  | ≤ 100 |
| Cc1cc(CN2CCOCC2)cc2c(=O)[nH]c(-c3cc4sccc4cn3)nc12.Cl [Compound 119, 8-Methyl-6-(morpholinomethyl)-2-(thieno[3,2-c]pyridin-6-yl)quinazolin-4(3H)-one hydrochloride] | significant anti-cataleptic effect | > 250 | ≤ 100 |
| Cc1cc(CCN2CCN(C)C(=O)C2)cc2c(=O)[nH]c(-c3cc4sccc4cn3)nc12.Cl [Compound 143, 8-Methyl-6-[2-(4-methyl-3-oxo-piperazin-1-yl)ethyl]-2-thieno[3,2-c]pyridin-6-yl-3H-quinazolin-4-one hydrochloride] | significant anti-cataleptic effect | > 250 | ≤ 100 |
| Cc1cc(CCN2CCC(F)(F)CC2)cc2c(=O)[nH]c(-c3cc(C(F)(F)F)ccn3)nc12.Cl [Compound 165, 6-(2-(4,4-difluoropiperidin-1-yl)ethyl)-8-methyl-2-(4-(trifluoromethyl)pyridin-2-yl)quinazolin-4(3H)-one hydrochloride] |  | 240 to 250 | 100 to 1000 |
| COC1CCN(CCc2cc(C)c3nc(-c4cc(C(F)(F)F)ccn4)[nH]c(=O)c3c2)CC1.Cl [Compound 166, 6-(2-(4-methoxypiperidin-1-yl)ethyl)-8-methyl-2-(4-(trifluoromethyl)pyridin-2-yl)quinazolin-4(3H)-one hydrochloride] |  | > 250 | 100 to 1000 |
